{
  "source": "patent US20250177530A1",
  "about": "“MOLECULES THAT BIND TO ENPP1 POLYPEPTIDES” (UNIVERSITY OF PITTSBURGH - OF THE COMMONWEALTH SYSTEM OF …, priority 2022, published 2025)",
  "experiment_in_all_cases": "ADC cytotoxicity (Cell Titer-Glo cell viability)",
  "assay_type_in_all_cases": "cell-based",
  "key": {"293T cells": {"test_system": "293T cells", "description": "(§1) The cell-killing activity of anti-ENPP1 CAR^+ T cells and BiTEs were measured by LDH-Glo cytotoxicity assay kit (Promega, Madison, WI, USA). For the cell-killing activity of anti-ENPP1 CAR^+ T cells, control T cells or CAR^+ T cells as effector cells were incubated with 293T, 293T-ENPP1, and HepG2 target cells (5×10^3 cells/well in 96-well plate) separately at indicated E:T ratio for 24 hours at 37° C. For the cell-killing activity of BiTEs, target cells (1×10^4 cells/well) were mixed with serially diluted BiTEs in 50 μL of growth medium, and […] activated T cells were added at the ET ratio 10:1 and cultured for 24 hours at 37° C. in 5% CO2 humidified atmosphere. Controls for the calculation of percentage cytotoxicity were performed according to the manufacturer's instructions. The calculation of relative % cytotoxicity as follows: relative % cytotoxicity=100×(Experimental LDH release-medium background)/(target and effector maximum LDH release control-medium background). For the cell-killing activity of ADC, 293T, 293T-ENPP1, and HepG2 cells were seeded at 2000 cells/well in 96-well white plate and incubated overnight at 37° C. in 5% CO2. Serial diluted anti-ENPP1 ADC was added and cultured for 4 days at 37° C. in 5% CO2. Images were captured under a 4×objective microscope (Olympus microscope, Westborough, MA, USA). Controls with cells only were used for calculation of percent relative cell viability. At the end of the time point, the Cell Titer-Glo Luminescent cell viability assay kit (Promega) was used to measure the cell viability. The calculation of % Relative cell viability was as follows: % Relative cell viability=100×(Experimental luminescence values-medium Background)/(Control luminescence values-medium Background). For ADCC, the ADCC reporter bioassay complete kit (Promega) was used, the experiment was performed following the manufacturer's instructions. The 293T-ENPP1 cell line was used as target cell."}, "HepG2 cells": {"test_system": "HepG2 cells", "conditions": "200 nM", "description": "as §1"}, "293T-ENPP1 cells": {"test_system": "293T-ENPP1 cells", "description": "as §1"}},
  "note": "Non-standard residues stand in square brackets, D forms with d. Residues, ends and D or L forms follow the SMILES beside them. *: point of attachment. Dolaproine = CO[C@@H]([C@@H]1CCCN1)[C@@H](C)C(=O)O; Dil = CC[C@H](C)[C@H](NC)[C@@H](CC(=O)O)OC; X1 = C[C@@H](N*)[C@@H](O)c1ccccc1; NMeV = CN[C@H](C(=O)O)C(C)C",
  "data": [
    {"smiles": "CC[C@H](C)[C@@H]([C@@H](CC(=O)N1CCC[C@H]1[C@H](OC)[C@@H](C)C(=O)N[C@H](C)[C@@H](O)c1ccccc1)OC)N(C)C(=O)[C@@H](NC(=O)[C@@H](NC)C(C)C)C(C)C", "note": "[MMAE, monomethyl auristatin E, reference compound] (H-[NMeV]V[Dil][Dolaproine]-X1)", "values": [
      {"measurement": "killing at 200 nM", "setting": "293T cells; 200 nM", "result": "non-specific killing"},
      {"measurement": "killing at lower concentrations", "setting": "293T cells; concentrations below 200 nM", "result": "no non-specific killing"},
      {"measurement": "killing effects of free MMAE and ADC compared", "setting": "HepG2 cells", "result": "comparable"},
      {"measurement": "killing at 200 nM", "setting": "293T-ENPP1 cells", "result": "non-specific killing"}
    ]}
  ]
}
